Reference: patent US8906962B2, “Compositions and methods for treating hair loss using non-naturally occurring prostaglandins” (Duke University, priority 2000, dated 2014)

Legend:
C3H mice = test: Telogen Conversion Assay (topical, skin colour grade, hair growth); type: in vivo; settings: for Grades (average animal score): day 26, visual grade 0 to 4 of skin colour (Table 4)
Description: PGF's are tested for their potential to grow hair using the Telogen Conversion Assay. The Telogen Conversion Assay measures the potential of a PGF to convert mice in the resting stage of the hair growth cycle (“telogen”), to the growth stage of the hair growth cycle (“anagen”).
Without intending to be limited by theory, there are three principal phases of the hair growth cycle: anagen, catagen, and telogen. It is believed that there is a longer telogen period in C3H mice (Harlan Sprague Dawley, Inc., Indianapolis, Ind.) from approximately 40 days of age until about 75 days of age, when hair growth is synchronized. It is believed that after 75 days of age, hair growth is no longer synchronized. Wherein about 40 day-old mice with dark fur (brown or black) are used in hair growth experiments, melanogenesis occurs along with hair (fur) growth wherein the topical application of hair growth inducers are evaluated. The Telogen Conversion Assay herein is used to screen PGF's for potential hair growth by measuring melanogenesis.
Three groups of 44 day-old C3H mice are used: a vehicle control group, a positive control group, and a test PGF group, wherein the test PGF group is administered a PGF used in the method of this invention. […] Day 1 is the first day of treatment. Typical dosage concentrations are set forth in Table 3, however the skilled artisan will readily understand that such concentrations may be modified.
The mice are treated topically Monday through Friday on their lower back (base of tail to the lower rib). A pipettor and tip are used to deliver 400 μL to each mouse's back. The 400 μL application is applied slowly while moving hair on the mouse to allow the application to reach the skin.
While each treatment is being applied to the mouse topically, a visual grade of from 0 to 4 will be given to the skin color in the application area of each animal. As a mouse converts from telogen to anagen, its skin color will become more bluish-black.

hFP = biological target: T1, hFP (Homo sapiens, UniProt P43088); test: Radioligand Binding Assay (competition with (3H) PGF2 on hFP membranes); settings: relative to PGF2α, hFP membranes from transfected COS-7 cells
T1 construct: expressed in transfected cells; host or cells: COS-7 cells, transient transfection with LipofectAMINE; membranes prepared
T1 sequence (P43088 whole entry): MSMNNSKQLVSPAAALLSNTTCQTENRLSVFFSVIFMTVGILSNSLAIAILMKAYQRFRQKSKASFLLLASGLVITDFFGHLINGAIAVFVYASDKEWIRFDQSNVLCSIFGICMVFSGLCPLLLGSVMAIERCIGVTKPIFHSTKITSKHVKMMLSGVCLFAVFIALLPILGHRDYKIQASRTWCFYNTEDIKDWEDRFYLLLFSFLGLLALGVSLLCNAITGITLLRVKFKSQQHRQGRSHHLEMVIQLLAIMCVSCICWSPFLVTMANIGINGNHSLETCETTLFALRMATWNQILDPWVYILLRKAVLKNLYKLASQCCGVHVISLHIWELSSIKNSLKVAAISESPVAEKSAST
Description: IC50 of a PGF can be determined relative to PGF2α using the Radioligand Binding Assay. As a control, the IC50 for PGF2α itself should be no lower than 1.0 nM and no higher than 5.0 nM.
In this assay, COS-7 cells are transiently transfected with the hFP recombinant plasmid using LipofectAMINE Reagent. Forty-eight hours later, the tranfected cells are washed with Hank's Balanced Salt Solution (HBSS, without CaCl2, MgCl2, MgSO4, or phenol red). The cells are detached with versene, and HBSS is added. The mixture is centrifuged at 200 g for 10 minutes, at 4° C. to pellet the cells. The pellet is resuspended in Phosphate-Buffered Saline-EDTA buffer (PBS; 1 mM EDTA; pH 7.4; 4° C.). The cells are disrupted by nitrogen cavitation (Parr model 4639), at 800 psi, for 15 minutes at 4° C. The mixture is centrifuged at 1000 g for 10 minutes at 4° C. The supernatant is centrifuged at 100,000 g for 60 minutes at 4° C. The pellet is resuspended to 1 mg protein/mL TME buffer (50 mM Tris; 10 mM MgCl2; 1 mM EDTA; pH 6.0; 4° C.) based on protein levels measured using the Pierce BCA Protein Assay kit. The homogenate is mixed for 10 seconds using a Kinematica POLYTRON® (available from KINEMATICA AG, Luzernerstrassel47A CH-6014 Littau, Switzerland). The membrane preparations are then stored at −80° C., until thawed for assay use.
The receptor competition binding assays are developed in a 96 well format. Each well contains […] of hFP membrane, 5 nM (3H) PGF2, and the various competing compounds in a total volume of […]. The plates are incubated at 23° C. for 1 hour. The incubation is terminated by rapid filtration using the Packard Filtermate 196 harvester through Packard UNIFILTER® GF/B filters (available from Packard Instrument Co., Inc. of Downers Grove Ill.) pre-wetted with TME buffer. The filter is washed four times with TME buffer. […] The plates are read on a Packard TOPCOUNT® Microplate Scintillation Counter (also available from Packard Instrument Co., Inc.)

EP1 receptor = biological target: T2, EP1 receptor (Homo sapiens, UniProt P34995); test: Receptor selectivity statement (EP1 activation); settings: stated without method; said to result in the side effect of pain
T2 sequence (P34995 1-402): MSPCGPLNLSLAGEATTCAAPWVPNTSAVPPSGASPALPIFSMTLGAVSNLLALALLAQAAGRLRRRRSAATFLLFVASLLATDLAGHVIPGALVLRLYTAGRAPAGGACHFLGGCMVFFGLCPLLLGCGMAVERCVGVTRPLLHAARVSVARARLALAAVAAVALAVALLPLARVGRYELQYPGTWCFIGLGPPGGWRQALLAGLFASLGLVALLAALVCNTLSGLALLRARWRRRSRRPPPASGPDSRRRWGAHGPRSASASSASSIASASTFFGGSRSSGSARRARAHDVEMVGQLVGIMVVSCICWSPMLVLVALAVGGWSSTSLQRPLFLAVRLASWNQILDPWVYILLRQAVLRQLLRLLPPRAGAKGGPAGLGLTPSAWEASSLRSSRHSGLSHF

| Molecule | hair growth / activity (C3H mice; 0.01% topical) | Grades (average animal score) (C3H mice; 0.01%) | hair growth / activity (C3H mice; 0.1% topical) | Grades (average animal score) (C3H mice; 0.1%) | IC50 (hFP) [nM] | also measured |
| --- | --- | --- | --- | --- | --- | --- |
| COC(=O)CCC/C=C\C[C@@H]1[C@@H](/C=C/[C@@H](O)COc2cccc(C(F)(F)F)c2)[C@H](O)C[C@@H]1O [Fluprostenol Methyl Ester] | grew hair | 3.9 | grew hair | 2.6 | – | – |
| N[C@@H](Cc1cc(I)c(Oc2ccc(O)c(I)c2)c(I)c1)C(=O)O [T3 compound, 3,5,3′-triiodothyronine, reference compound] | grew hair | – | – | – | – | – |
| O=C(O)CCCCCC[C@@H]1[C@@H](CCC(O)c2cc3ccccc3s2)[C@H](O)C[C@@H]1O (some centres unmarked) [Example 3-2] | – | – | – | – | 27 | – |
| O=C(O)CCCCCC[C@@H]1[C@@H](CCC(O)c2nc3ccccc3s2)[C@H](O)C[C@@H]1O (stereo partly drawn) [13,14-dihydro-15-(2-benzathiozolyl)pentanor Prostaglandin F1α] | – | – | – | – | 45 | hair growth (C3H mice; concentration not given): grew hair |
| Latanoprost [reference compound] | active | 0.71 | active | 2.9 | – | activation of EP1 receptor (nonselective) (EP1 receptor): activates the EP1 receptor |
| O=C(O)CCCCCC[C@@H]1[C@@H](CCC(O)C#Cc2ccccc2F)[C@H](O)C[C@@H]1O (some centres unmarked) [Example 3-1] | – | – | – | – | 19 | – |
